Assays:
Type in all cases: biochemical
[1] = target: TYK2 (Homo sapiens (Human), UniProt P29597); assay: JAK Caliper Enzyme Assay at 1 mM ATP, TYK2
How it was run: (§1)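 Peptide phosphorylation by recombinant human kinase domain, 1 mM ATP, room temperature, EDTA-terminated, detected by microfluidic mobility shift; % effect normalised to DMSO baseline.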

[2] = target: JAK1 (Homo sapiens (Human), UniProt P23458); assay: JAK Caliper Enzyme Assay at 1 mM ATP, JAK1
How it was run: (§2)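 Recombinant human kinase domains phosphorylate a fluorescent synthetic peptide at 1 mM ATP, room temperature, with enzyme and time tuned for 20-30% conversion; EDTA-stopped. Product/substrate separated by microfluidic mobility shift; percent effect versus DMSO and positive controls fitted to IC50 (nM).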

[3] = target: JAK2 (Homo sapiens (Human), UniProt O60674); assay: JAK Caliper Enzyme Assay at 1 mM ATP, JAK2
How it was run: as §1

[4] = target: JAK3 (Homo sapiens (Human), UniProt P52333); assay: JAK Caliper Enzyme Assay at 1 mM ATP, JAK3
How it was run: as §2

Chain of JAK2 (O60674 849-1124): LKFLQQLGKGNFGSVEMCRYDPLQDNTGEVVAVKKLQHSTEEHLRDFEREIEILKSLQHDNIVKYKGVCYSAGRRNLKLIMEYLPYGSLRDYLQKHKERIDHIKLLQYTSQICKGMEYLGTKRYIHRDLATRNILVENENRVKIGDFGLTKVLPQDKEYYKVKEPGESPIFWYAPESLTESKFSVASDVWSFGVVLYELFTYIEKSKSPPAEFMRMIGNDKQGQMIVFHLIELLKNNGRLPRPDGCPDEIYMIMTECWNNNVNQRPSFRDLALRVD
Chain of JAK1 (P23458 875-1153): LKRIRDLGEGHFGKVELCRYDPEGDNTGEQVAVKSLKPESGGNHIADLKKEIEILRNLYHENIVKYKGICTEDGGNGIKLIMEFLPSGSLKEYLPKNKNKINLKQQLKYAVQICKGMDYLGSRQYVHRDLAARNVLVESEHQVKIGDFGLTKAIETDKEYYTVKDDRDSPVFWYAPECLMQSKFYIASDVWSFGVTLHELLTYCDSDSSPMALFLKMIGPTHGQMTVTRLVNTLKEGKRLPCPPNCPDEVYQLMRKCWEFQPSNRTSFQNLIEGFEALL
Chain of JAK3 (P52333 822-1111): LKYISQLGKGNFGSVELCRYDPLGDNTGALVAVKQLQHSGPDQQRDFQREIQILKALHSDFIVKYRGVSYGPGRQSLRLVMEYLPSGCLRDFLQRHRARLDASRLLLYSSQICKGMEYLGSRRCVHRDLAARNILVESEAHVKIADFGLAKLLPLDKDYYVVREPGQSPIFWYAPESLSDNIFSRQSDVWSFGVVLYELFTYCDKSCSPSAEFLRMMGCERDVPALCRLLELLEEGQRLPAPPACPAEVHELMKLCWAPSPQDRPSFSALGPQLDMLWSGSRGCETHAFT
Chain of TYK2 (P29597 897-1176): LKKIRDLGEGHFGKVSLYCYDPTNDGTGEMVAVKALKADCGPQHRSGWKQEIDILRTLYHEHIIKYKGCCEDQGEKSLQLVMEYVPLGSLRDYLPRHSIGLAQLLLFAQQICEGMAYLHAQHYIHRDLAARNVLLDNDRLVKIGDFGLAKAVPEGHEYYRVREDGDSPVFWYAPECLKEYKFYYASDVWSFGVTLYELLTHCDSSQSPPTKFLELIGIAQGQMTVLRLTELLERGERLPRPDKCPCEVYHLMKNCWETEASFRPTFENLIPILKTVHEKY

Row | Structure (SMILES) | IC50 [1] [nM] | IC50 [2] [nM] | IC50 [3] [nM] | IC50 [4] [µM]
1 | Cn1cc(-c2cc3ncccc3c(-c3ccn(C4(CC#N)CN(S(C)(=O)=O)C4)n3)n2)ccc1=O [Example 248, [3-{3-[7-(1-methyl-6-oxo-1,6-dihydropyridin-3-yl)-1,6-naphthyridin-5-yl]-1H-pyrazol-1-yl}-1-(methylsulfonyl)azetidin-3-yl]acetonitrile] | 96 | 994 | 532 | > 10
2 | Cn1cc(-c2cc3ncccc3c(-c3ccn(C4(CC#N)CN(CC(F)(F)F)C4)n3)n2)ccc1=O [Example 249, [3-{3-[7-(1-methyl-6-oxo-1,6-dihydropyridin-3-yl)-1,6-naphthyridin-5-yl]-1H-pyrazol-1-yl}-1-(2,2,2-trifluoroethyl)azetidin-3-yl]acetonitrile] | 178 | 1080 | 1150 | > 10
3 | Cc1cc(-c2cc3ncccc3c(-c3ccn(C4(CC#N)CN(CC(F)(F)F)C4)n3)n2)c[nH]c1=O [Example 250, [3-{3-[7-(5-methyl-6-oxo-1,6-dihydropyridin-3-yl)-1,6-naphthyridin-5-yl]-1H-pyrazol-1-yl}-1-(2,2,2-trifluoroethyl)azetidin-3-yl]acetonitrile] | 55 | 1260 | 821 | > 10
4 | CS(=O)(=O)N1CC(CC#N)(n2ccc(-c3nc(-c4ccccc4CO)cc4ncccc34)n2)C1 [Example 255, [3-(3-{7-[2-(hydroxymethyl)phenyl]-1,6-naphthyridin-5-yl}-1H-pyrazol-1-yl)-1-(methylsulfonyl)azetidin-3-yl]acetonitrile] | 3170 | > 10000 | > 10000 | > 10
5 | CS(=O)(=O)N1CC(CC#N)(n2ccc(-c3nc(-c4ccccc4F)cc4ncccc34)n2)C1 [Example 258, [3-{3-[7-(2-fluorophenyl)-1,6-naphthyridin-5-yl]-1H-pyrazol-1-yl}-1-(methylsulfonyl)azetidin-3-yl]acetonitrile] | 255 | > 10000 | > 10000 | > 10
6 | CS(=O)(=O)N1CC(CC#N)(n2ccc(-c3nc(-c4cc(O)cc(F)c4)cc4ncccc34)n2)C1 [Example 261, [3-{3-[7-(3-fluoro-5-hydroxyphenyl)-1,6-naphthyridin-5-yl]-1H-pyrazol-1-yl}-1-(methylsulfonyl)azetidin-3-yl]acetonitrile] | 118 | > 10000 | > 10000 | > 10
7 | CS(=O)(=O)N1CC(CC#N)(n2ccc(-c3nc(-c4cc(F)ccc4O)cc4ncccc34)n2)C1 [Example 262, [3-{3-[7-(5-fluoro-2-hydroxyphenyl)-1,6-naphthyridin-5-yl]-1H-pyrazol-1-yl}-1-(methylsulfonyl)azetidin-3-yl]acetonitrile] | 242 | > 10000 | > 10000 | > 10
8 | CCN1CC(CC#N)(n2ccc(-c3nc(C4=CCOCC4)cc4ncccc34)n2)C1 [Example 263, (3-{3-[7-(3,6-dihydro-2H-pyran-4-yl)-1,6-naphthyridin-5-yl]-1H-pyrazol-1-yl}-1-ethylazetidin-3-yl)acetonitrile] | 1390 | > 10000 | 9570 | > 10
9 | CCN1CC(CC#N)(n2ccc(-c3nc(N4CCOCC4)cc4ncccc34)n2)C1 [Example 264, (1-ethyl-3-{3-[7-(morpholin-4-yl)-1,6-naphthyridin-5-yl]-1H-pyrazol-1-yl}azetidin-3-yl)acetonitrile] | 6990 | > 10000 | > 10000 | > 10
10 | CCN1CC(CC#N)(n2ccc(-c3nc(N4CCCC4)cc4ncccc34)n2)C1 [Example 265, (1-ethyl-3-{3-[7-(pyrrolidin-1-yl)-1,6-naphthyridin-5-yl]-1H-pyrazol-1-yl}azetidin-3-yl)acetonitrile] | 4820 | > 10000 | > 10000 | > 10
11 | N#CCC1(n2ccc(-c3nc(Oc4cccc(N)n4)cc4ncccc34)n2)CC(C#N)C1 (stereo not drawn) [Example 266, trans-3-(3-{7-[(6-aminopyridin-2-yl)oxy]-1,6-naphthyridin-5-yl}-1H-pyrazol-1-yl)-3-(cyanomethyl)cyclobutanecarbonitrile] | 1910 | > 10000 | 3320 | > 10
12 | Cc1cc(-c2nc(-c3ccn[nH]3)cc3ncccc23)nn1C1(CC#N)CN(S(C)(=O)=O)C1 [Example 267, [3-{5-methyl-3-[7-(1H-pyrazol-5-yl)-1,6-naphthyridin-5-yl]-1H-pyrazol-1-yl}-1-(methylsulfonyl)azetidin-3-yl]acetonitrile] | 57 | 2950 | 843 | > 10

Now those with a lower IC50 [1], led by results:

Row | IC50 [1] [nM] | IC50 [2] [nM] | IC50 [3] [nM] | IC50 [4] [µM] | Structure (SMILES)
13 | 48 | 541 | 229 | > 10 | CCn1cc(-c2cc3ncccc3c(-c3ccn(C4(CC#N)CN(S(C)(=O)=O)C4)n3)n2)ccc1=O [Example 251, [3-{3-[7-(1-ethyl-6-oxo-1,6-dihydropyridin-3-yl)-1,6-naphthyridin-5-yl]-1H-pyrazol-1-yl}-1-(methylsulfonyl)azetidin-3-yl]acetonitrile]
14 | 27 | 198 | 325 | > 10 | CS(=O)(=O)N1CC(CC#N)(n2ccc(-c3nc(-c4ccc(O)c(F)c4)cc4ncccc34)n2)C1 [Example 260, [3-{3-[7-(3-fluoro-4-hydroxyphenyl)-1,6-naphthyridin-5-yl]-1H-pyrazol-1-yl}-1-(methylsulfonyl)azetidin-3-yl]acetonitrile]
15 | 19 | > 10000 | 566 | > 10 | CS(=O)(=O)N1CC(CC#N)(n2ccc(-c3nc(-c4ccc(F)cc4O)cc4ncccc34)n2)C1 [Example 259, [3-{3-[7-(4-fluoro-2-hydroxyphenyl)-1,6-naphthyridin-5-yl]-1H-pyrazol-1-yl}-1-(methylsulfonyl)azetidin-3-yl]acetonitrile]
16 | 15 | 663 | 118 | > 10 | CS(=O)(=O)N1CC(CC#N)(n2ccc(-c3nc(-c4ccccc4O)cc4ncccc34)n2)C1 [Example 252, [3-{3-[7-(2-hydroxyphenyl)-1,6-naphthyridin-5-yl]-1H-pyrazol-1-yl}-1-(methylsulfonyl)azetidin-3-yl]acetonitrile]
17 | 11 | 237 | 205 | > 10 | CS(=O)(=O)N1CC(CC#N)(n2ccc(-c3nc(-c4ccc(O)cc4)cc4ncccc34)n2)C1 [Example 254, [3-{3-[7-(4-hydroxyphenyl)-1,6-naphthyridin-5-yl]-1H-pyrazol-1-yl}-1-(methylsulfonyl)azetidin-3-yl]acetonitrile]
18 | 8 | 81 | 33 | 7.79 | Cc1cc(-c2nc(-c3cc[nH]n3)cc3ncccc23)nn1[C@]1(CC#N)C[C@H](C#N)C1 [Example 268, cis-3-(cyanomethyl)-3-{5-methyl-3-[7-(1H-pyrazol-3-yl)-1,6-naphthyridin-5-yl]-1H-pyrazol-1-yl}cyclobutanecarbonitrile]
